Experiments:
Test in all cases: relative viability (nuclei count vs DMSO), 5 days (fraction); higher = more cells survive
[1] = compound: NCC(=O)Nc1ccc(-n2nc(C(F)(F)F)cc2-c2ccc3c(ccc4ccccc43)c2)cc1 + Cc1nc(Nc2ncc(C(=O)Nc3c(C)cccc3Cl)s2)cc(N2CCN(CCO)CC2)n1 [Dasatinib] (partner 0.075 µM)
Summary of the method: (§1)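 Cells from lung cancer lines were seeded into 1536-well plates and, one day later, dosed by pin tool. Treatments were either a single drug or a fixed dose of an anchor drug with five library-drug doses (not always all listed) in √10 steps. After 5 days, nuclei were stained in a one-step fixation (final 0.05% Triton X-100, 1% formaldehyde, 1 ug/ml Hoechst) and counted on 4× images, and relative viability is the treated-to-vehicle nuclei ratio, as the median of duplicate plates.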

[2] = compound: C1CSC2=C(C(=O)N1)SC3=C2C=C(C=C3)O [kb NB 142-70] + C[C@]1(O)C[C@@H](c2nc(-c3ccc4ccc(-c5ccccc5)nc4c3)c3c(N)nccn32)C1 [Linsitinib] (partner 1 µM)
Summary of the method: as §1

[3] = compound: C1CSC2=C(C(=O)N1)SC3=C2C=C(C=C3)O [kb NB 142-70] + CC(C)C[C@H](NC(=O)[C@H](Cc1ccccc1)NC(=O)c1cnccn1)B(O)O [Bortezomib] (partner 0.002 µM)
Summary of the method: as §1

[4] = compound: NCC(=O)Nc1ccc(-n2nc(C(F)(F)F)cc2-c2ccc3c(ccc4ccccc43)c2)cc1 + CC(=O)c1c(C)c2cnc(Nc3ccc(N4CCNCC4)cn3)nc2n(C2CCCC2)c1=O [Palbociclib] (partner 0.5 µM)
Summary of the method: as §1

[5] = compound: C1CSC2=C(C(=O)N1)SC3=C2C=C(C=C3)O [kb NB 142-70] + Cc1nc(Nc2ncc(C(=O)Nc3c(C)cccc3Cl)s2)cc(N2CCN(CCO)CC2)n1 [Dasatinib] (partner 0.075 µM)
Summary of the method: as §1

Cell Line	relative viability ([1]; first compound 0.02 µM)	relative viability ([1]; first compound 0.06325 µM)	relative viability ([1]; first compound 0.2 µM)	relative viability ([1]; first compound 0.6325 µM)	relative viability ([1]; first compound 2 µM)	relative viability ([2]; first compound 0.1 µM)	relative viability ([2]; first compound 1 µM)	relative viability ([2]; first compound 3.162 µM)	relative viability ([3]; first compound 0.1 µM)	relative viability ([3]; first compound 1 µM)	relative viability ([3]; first compound 3.162 µM)	relative viability ([4]; first compound 0.02 µM)	relative viability ([4]; first compound 0.06325 µM)	relative viability ([4]; first compound 0.2 µM)	relative viability ([4]; first compound 0.6325 µM)	relative viability ([4]; first compound 2 µM)	relative viability ([5]; first compound 0.1 µM)	relative viability ([5]; first compound 1 µM)	relative viability ([5]; first compound 3.162 µM)
201T	0.518	0.571	0.56	0.53	0.542	1.04	1.05	1.02	1.09	1.17	1.11	0.342	0.374	0.366	0.363	0.351	0.596	0.47	0.565
A549	–	–	–	–	–	0.551	0.524	0.499	–	–	–	–	–	–	–	–	–	–	–
A-427	–	0.692	0.724	0.682	0.672	1.04	1.12	1.01	1.01	1.05	1.01	0.502	0.567	0.527	0.526	0.534	0.8	0.612	0.607
ABC-1	0.613	0.602	–	0.59	0.49	0.976	0.984	0.683	0.373	0.278	0.239	0.725	0.592	–	0.807	0.658	0.663	0.49	0.361
BEN	0.283	0.332	0.244	0.333	0.304	0.793	0.893	0.724	0.942	0.669	0.418	0.441	0.475	0.473	0.49	0.465	0.307	0.303	0.209
CAL-12T	0.494	0.691	0.454	0.425	0.495	0.859	0.869	1.03	1.01	1.04	0.819	0.527	0.481	0.462	0.588	0.423	0.408	0.375	0.414
COR-L23	0.481	0.504	0.566	0.481	0.531	0.953	0.901	0.303	0.872	0.913	0.51	0.297	0.293	0.346	0.261	0.245	0.529	0.526	0.311
COR-L 105	0.388	0.426	0.362	0.418	0.413	1.17	1	0.94	0.871	0.828	0.903	0.4	0.399	0.411	0.413	0.432	0.363	0.33	0.345
Calu-6	–	–	–	–	–	0.93	0.889	0.683	1.01	0.946	0.62	–	–	–	–	–	–	–	–
ChaGo-K-1	0.53	0.604	0.47	0.646	0.579	–	–	–	1.06	1.1	0.951	0.919	0.929	0.933	0.973	0.917	0.509	0.559	0.543
EBC-1	–	–	–	–	–	0.897	0.952	0.817	0.592	0.546	0.358	–	–	–	–	–	–	–	–
EKVX	0.554	0.6	0.648	0.527	0.488	0.969	1.01	1.04	0.994	1.05	0.993	0.436	0.417	0.397	0.348	0.382	0.559	0.289	0.729
EMC-BAC-2	0.316	0.286	0.325	0.377	0.338	0.805	0.798	0.747	1.08	1.07	0.812	0.514	0.513	0.537	0.518	0.532	0.363	0.305	0.235
EPLC-272H	0.35	0.406	0.351	0.357	0.671	1.07	1.05	0.599	0.926	1.06	0.72	0.332	0.306	0.36	0.335	0.326	0.417	0.34	0.149
H3255	0.477	0.343	0.348	0.337	0.347	0.824	0.984	0.905	0.822	0.7	0.822	0.35	0.313	0.314	0.322	0.304	0.297	0.404	0.405
HARA	0.227	0.241	0.233	0.256	0.296	1.05	0.975	0.631	1.15	1.06	0.964	0.258	0.173	0.287	0.294	0.256	0.3	0.188	0.237
HCC-15	0.619	0.709	0.651	0.632	0.673	0.86	0.89	0.697	0.972	1.1	1.1	0.714	0.732	0.763	0.742	0.749	0.638	0.574	0.459
HCC-44	–	–	–	–	–	0.689	0.716	0.658	0.952	0.94	0.899	1.04	0.961	0.994	0.977	0.962	–	–	–
HCC-78	0.466	0.432	0.357	0.425	0.429	0.491	0.569	0.467	0.486	0.543	0.556	0.541	0.482	0.526	0.403	0.496	0.426	0.388	0.31
HCC-366	0.659	0.644	0.615	0.621	0.624	0.658	0.462	0.214	1.07	0.926	1.12	0.399	0.449	0.378	0.394	0.355	0.634	0.498	0.378
HCC-827	0.371	0.282	0.336	0.329	0.35	0.921	0.992	0.902	1.09	1.02	0.978	0.501	0.545	0.509	0.486	0.504	0.265	0.295	0.445

Cell Line	relative viability ([1]; first compound 0.02 µM)	relative viability ([1]; first compound 0.06325 µM)	relative viability ([1]; first compound 0.2 µM)	relative viability ([1]; first compound 0.6325 µM)	relative viability ([1]; first compound 2 µM)	relative viability ([2]; first compound 0.1 µM)	relative viability ([2]; first compound 1 µM)	relative viability ([2]; first compound 3.162 µM)	relative viability ([3]; first compound 0.1 µM)	relative viability ([3]; first compound 1 µM)	relative viability ([3]; first compound 3.162 µM)	relative viability ([4]; first compound 0.02 µM)	relative viability ([4]; first compound 0.06325 µM)	relative viability ([4]; first compound 0.2 µM)	relative viability ([4]; first compound 0.6325 µM)	relative viability ([4]; first compound 2 µM)	relative viability ([5]; first compound 0.1 µM)	relative viability ([5]; first compound 1 µM)	relative viability ([5]; first compound 3.162 µM)
HOP-62	0.725	0.629	0.699	0.652	0.679	0.996	0.906	0.945	0.919	1	0.569	0.453	0.384	0.42	0.452	0.545	0.72	0.65	0.763
IA-LM	–	–	–	–	–	0.621	0.771	0.87	0.765	1.06	0.647	–	–	–	–	–	–	–	–
LC-2-ad	0.478	0.677	0.609	0.714	0.577	0.791	0.825	0.677	1.12	1.03	0.916	0.507	0.462	0.463	0.469	0.473	0.609	0.607	0.463
LCLC-97TM1	0.901	0.809	0.797	0.827	0.752	0.192	0.187	0.172	0.853	0.563	0.123	0.249	0.205	0.22	0.233	0.199	0.787	0.95	0.882
LK-2	0.32	0.325	0.271	0.266	0.263	0.751	0.384	0.245	–	–	–	0.538	0.831	0.539	0.675	0.636	0.231	0.231	0.229
NCI-H358	0.165	0.138	0.153	0.173	0.189	0.654	0.522	0.146	–	–	–	0.158	0.111	0.136	0.122	0.145	0.15	0.109	0.127
NCI-H522	–	0.831	0.874	0.854	0.921	–	–	–	–	–	–	0.844	0.996	0.998	0.934	0.992	1.03	0.856	0.704
NCI-H596	0.626	0.66	0.591	0.6	0.652	1.13	1.02	0.837	1	1.07	0.954	–	–	–	–	–	0.551	0.571	0.442
NCI-H1299	–	–	–	–	–	1.07	1.07	1.14	1.01	1.07	1.05	–	–	–	–	–	–	–	–
NCI-H1395	0.442	0.422	0.358	0.444	0.39	1.15	1.26	0.765	–	–	–	0.702	0.678	0.617	0.621	0.614	0.393	0.443	0.43
NCI-H1563	0.47	0.479	0.477	0.469	0.525	1.19	1.19	1.28	0.921	0.84	0.956	–	–	–	–	–	0.464	0.467	0.424
NCI-H1623	0.544	0.676	0.531	0.488	0.528	–	–	–	–	–	–	–	–	–	–	–	0.552	0.558	0.428
NCI-H1648	–	–	–	–	–	–	–	–	–	–	–	0.283	0.267	0.268	0.281	0.264	–	–	–
NCI-H1650	0.349	0.313	–	0.364	0.396	–	–	–	0.179	0.206	0.203	0.377	0.37	0.225	0.319	0.343	0.348	0.382	0.253
NCI-H1703	–	–	–	–	–	0.975	0.625	0.823	0.255	0.361	0.209	–	–	–	–	–	–	–	–
NCI-H1793	0.352	0.431	0.391	0.404	0.411	0.832	1.08	0.905	–	–	–	0.333	0.295	0.337	0.339	0.363	0.388	0.424	0.443
NCI-H1944	0.199	0.221	0.208	0.211	0.24	1.17	1.24	1.18	–	–	–	0.333	0.353	0.35	0.32	0.355	0.207	0.243	0.201
NCI-H2170	0.522	0.695	0.494	0.581	0.694	–	–	–	–	–	–	0.374	0.41	0.391	0.38	0.355	0.498	0.475	0.4
NCI-H2342	0.313	0.331	0.312	0.285	0.305	–	–	–	–	–	–	0.627	0.552	0.479	0.494	0.523	0.349	0.311	0.255
SK-MES-1	0.473	0.372	0.365	0.355	0.406	1.07	1.15	0.722	–	–	–	0.34	0.294	0.329	0.325	0.387	0.422	0.49	0.337
SW 900	–	0.69	0.852	0.515	0.592	–	–	–	–	–	–	0.513	0.661	0.534	0.535	0.641	0.517	0.478	0.208
